Reference: ChEMBL document CHEMBL1201862, “PubChem BioAssay data set” (2004)
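Method: 48-hour compound exposure of cells in 96-well plates, five concentrations, linear interpolation of endpoints. GI50: concentration for 50% inhibition of growth.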 Activity calls are given as the source filed them. Cut-off read from the data, not from the text of the source: active = GI50 up to about 1.1 µM and inactive = higher.

What was measured:
Assay in all cases: NCI anticancer screen, dose series, 48 h
CAKI-1 = tested on: CAKI-1
DMS-273 = tested on: DMS-273
EKVX = tested on: EKVX
HCC 2998 = tested on: HCC 2998
IGROV-1 = tested on: IGROV-1
KM12 = tested on: KM12
LOX IMVI = tested on: LOX IMVI
OVCAR-8 = tested on: OVCAR-8
SF-268 = tested on: SF-268
SK-MEL-28 = tested on: SK-MEL-28
SK-MEL-2 = tested on: SK-MEL-2
SN12C = tested on: SN12C
SNB-19 = tested on: SNB-19
SNB-75 = tested on: SNB-75
A498 = tested on: A498
HCT-116 = tested on: HCT-116
TK-10 = tested on: TK-10
DU-145 = tested on: DU-145
MCF7 = tested on: MCF7
MDA-MB-435 = tested on: MDA-MB-435

Measured: GI50

CO/S(=N/S(=O)(=O)c1ccccc1)c1ccccc1[N+](=O)[O-] (stereo not drawn)
inactive: CAKI-1 > 100 µM | DMS-273 > 100 µM | EKVX > 100 µM | HCC 2998 > 100 µM | IGROV-1 > 100 µM | KM12 > 100 µM | LOX IMVI > 100 µM | OVCAR-8 > 100 µM | SF-268 > 100 µM | SK-MEL-28 > 100 µM | SK-MEL-2 > 100 µM | SN12C > 100 µM | SNB-19 > 100 µM | SNB-75 > 100 µM

c1ccc(SCCCC(Sc2ccccc2)Sc2ccccc2)cc1
inactive: A498 > 100 µM | CAKI-1 > 100 µM | DMS-273 > 100 µM | EKVX > 100 µM | HCC 2998 > 100 µM | HCT-116 > 100 µM | IGROV-1 > 100 µM | KM12 > 100 µM | LOX IMVI > 100 µM | OVCAR-8 > 100 µM | SF-268 > 100 µM | SK-MEL-28 > 100 µM | SK-MEL-2 > 100 µM | SN12C > 100 µM | SNB-19 > 100 µM | SNB-75 > 100 µM | TK-10 > 100 µM

S=P(N1CCCC1)(N1CC1)N1CC1
inactive: A498 > 100 µM | CAKI-1 49.4 µM | DMS-273 > 100 µM | EKVX > 100 µM | HCC 2998 > 100 µM | HCT-116 > 100 µM | IGROV-1 > 100 µM | KM12 > 100 µM | LOX IMVI > 100 µM | OVCAR-8 > 100 µM | SF-268 > 100 µM | SK-MEL-28 > 100 µM | SK-MEL-2 > 100 µM | SN12C > 100 µM | SNB-19 84.1 µM | SNB-75 > 100 µM | TK-10 > 100 µM

NC1=NN(c2ccccc2)C(=O)C1C(=O)CCC(=O)Nc1cccc(C(F)(F)F)c1 (stereo not drawn)
inactive: CAKI-1 > 100 µM | DMS-273 > 100 µM | EKVX > 100 µM | HCC 2998 > 100 µM | HCT-116 > 100 µM | IGROV-1 > 100 µM | KM12 > 100 µM | LOX IMVI 72.4 µM | OVCAR-8 > 100 µM | SF-268 > 100 µM | SK-MEL-28 > 100 µM | SK-MEL-2 > 100 µM | SN12C > 100 µM | SNB-19 > 100 µM | TK-10 > 100 µM

O=C1C[C@H]2CC3(CC[C@H]2CN1)OCCO3
inactive: A498 > 100 µM | CAKI-1 > 100 µM | DMS-273 > 100 µM | EKVX > 100 µM | HCC 2998 > 100 µM | HCT-116 > 100 µM | IGROV-1 > 100 µM | KM12 > 100 µM | LOX IMVI > 100 µM | OVCAR-8 > 100 µM | SF-268 > 100 µM | SK-MEL-28 > 100 µM | SK-MEL-2 > 100 µM | SN12C > 100 µM | SNB-19 > 100 µM | SNB-75 > 100 µM | TK-10 > 100 µM

O=C1C(=O)N(c2ccc(Cl)c(Cl)c2)C(=O)C(=O)C1c1nc2ccccc2o1
inactive: CAKI-1 > 100 µM | DMS-273 70.3 µM | HCC 2998 > 100 µM | HCT-116 34.1 µM | IGROV-1 > 100 µM | KM12 > 100 µM | LOX IMVI > 100 µM | OVCAR-8 > 100 µM | SF-268 > 100 µM | SK-MEL-28 > 100 µM | SK-MEL-2 > 100 µM | SN12C 94.6 µM | SNB-19 72.9 µM | SNB-75 > 100 µM | TK-10 > 100 µM

CCP(C)(=O)CC
inactive: CAKI-1 > 100 µM | DMS-273 > 100 µM | EKVX > 100 µM | HCC 2998 > 100 µM | HCT-116 > 100 µM | IGROV-1 > 100 µM | KM12 > 100 µM | LOX IMVI > 100 µM | OVCAR-8 > 100 µM | SF-268 > 100 µM | SK-MEL-28 > 100 µM | SK-MEL-2 > 100 µM | SN12C > 100 µM | SNB-19 > 100 µM | SNB-75 > 100 µM | TK-10 > 100 µM

Nc1n[nH]c2nc3ccc(C(F)(F)F)cc3nc12
inactive: A498 33 µM | CAKI-1 31.5 µM | DU-145 16.7 µM | EKVX 7.87 µM | HCC 2998 37.7 µM | HCT-116 24.7 µM | IGROV-1 21.9 µM | KM12 57.1 µM | LOX IMVI 18.6 µM | MCF7 15.3 µM | MDA-MB-435 64.9 µM | OVCAR-8 19.8 µM | SF-268 33.7 µM | SK-MEL-28 21.1 µM | SK-MEL-2 23.3 µM | SN12C 26.2 µM | SNB-19 32.2 µM | SNB-75 13.6 µM | TK-10 32.4 µM

CC(C)C(Sc1nc(-c2ccccc2)c(-c2ccccc2)[nH]1)C(=O)N/N=C/c1ccc(Cl)cc1 (stereo not drawn)
inactive: A498 22 µM | CAKI-1 44.5 µM | DMS-273 18.2 µM | EKVX 22.1 µM | HCT-116 15.8 µM | IGROV-1 24 µM | KM12 19.8 µM | LOX IMVI 15.5 µM | OVCAR-8 19.7 µM | SF-268 20.9 µM | SK-MEL-28 21.8 µM | SK-MEL-2 17.5 µM | SN12C 17.5 µM | SNB-19 36.9 µM | SNB-75 29.3 µM | TK-10 21.5 µM

Cc1c(C)c(S(=O)(=O)N(CCCCN)OCCCN)c(C)c2c1OC(C)(C)CC2
inactive: A498 16 µM | CAKI-1 32.1 µM | DU-145 23.7 µM | EKVX 16 µM | HCC 2998 6.08 µM | HCT-116 16.6 µM | IGROV-1 4.51 µM | KM12 17.1 µM | LOX IMVI 6.22 µM | MCF7 26.6 µM | MDA-MB-435 16.5 µM | OVCAR-8 18.7 µM | SF-268 15.4 µM | SK-MEL-28 19.6 µM | SK-MEL-2 11.1 µM | SN12C 29.6 µM | SNB-19 15.1 µM | SNB-75 13.8 µM | TK-10 14.5 µM

O=C(CCC(=O)Nc1ccc(Cl)c(Cl)c1)CC(=O)c1ccc(Cl)cc1
inactive: A498 > 100 µM | CAKI-1 > 100 µM | DMS-273 > 100 µM | EKVX > 100 µM | HCC 2998 > 100 µM | HCT-116 > 100 µM | IGROV-1 > 100 µM | KM12 > 100 µM | LOX IMVI > 100 µM | OVCAR-8 > 100 µM | SF-268 > 100 µM | SK-MEL-2 > 100 µM | SN12C > 100 µM | SNB-19 > 100 µM | TK-10 > 100 µM

C#CCOCn1cnc2c(N)ncnc21
inactive: A498 > 100 µM | CAKI-1 > 100 µM | DMS-273 > 100 µM | EKVX > 100 µM | HCC 2998 > 100 µM | HCT-116 > 100 µM | IGROV-1 > 100 µM | KM12 > 100 µM | LOX IMVI > 100 µM | OVCAR-8 > 100 µM | SF-268 > 100 µM | SK-MEL-28 > 100 µM | SK-MEL-2 > 100 µM | SN12C > 100 µM | SNB-19 > 100 µM | SNB-75 > 100 µM | TK-10 > 100 µM

O=C(c1ccc([N+](=O)[O-])cc1[N+](=O)[O-])N(/N=C/C=C/c1ccccc1)c1nnc(-c2ccccc2)c(-c2ccccc2)n1
inactive: A498 30.5 µM | CAKI-1 25.4 µM | DMS-273 23.7 µM | EKVX 36.4 µM | HCC 2998 31.6 µM | IGROV-1 42.1 µM | KM12 34.8 µM | LOX IMVI 35.7 µM | OVCAR-8 22.7 µM | SF-268 40.7 µM | SK-MEL-28 27.3 µM | SK-MEL-2 31 µM | SN12C 63.7 µM | SNB-19 94.4 µM | SNB-75 28.8 µM | TK-10 27.2 µM

N#CC(NNC(=O)c1ccccc1O)c1ccc(O)cc1 (stereo not drawn)
inactive: CAKI-1 6 µM | DMS-273 3.32 µM | HCT-116 3.33 µM | IGROV-1 3.96 µM | KM12 4.94 µM | LOX IMVI 5.83 µM | OVCAR-8 7.66 µM | SF-268 1.79 µM | SK-MEL-28 > 100 µM | SK-MEL-2 2.67 µM | SN12C 18.6 µM | SNB-75 1.24 µM | TK-10 39.5 µM

COC(=O)C1=CC(=O)[C@@H]2CCCC[C@H]12
inactive: CAKI-1 > 100 µM | DMS-273 > 100 µM | HCC 2998 > 100 µM | HCT-116 > 100 µM | KM12 > 100 µM | OVCAR-8 > 100 µM | SF-268 > 100 µM | SK-MEL-28 > 100 µM | SK-MEL-2 > 100 µM | SN12C > 100 µM | SNB-19 > 100 µM | SNB-75 > 100 µM | TK-10 > 100 µM

N#CCCC(C#N)(C#N)CCC#N
inactive: DMS-273 > 100 µM | EKVX > 100 µM | HCC 2998 > 100 µM | HCT-116 > 100 µM | IGROV-1 > 100 µM | KM12 > 100 µM | LOX IMVI > 100 µM | OVCAR-8 > 100 µM | SF-268 > 100 µM | SK-MEL-28 > 100 µM | SN12C > 100 µM | SNB-19 > 100 µM | TK-10 > 100 µM

CCC1(c2c(F)c(F)c(N)c(F)c2F)CCC(=O)NC1=O (stereo not drawn)
inactive: A498 > 100 µM | CAKI-1 > 100 µM | DMS-273 > 100 µM | EKVX > 100 µM | HCC 2998 > 100 µM | HCT-116 > 100 µM | IGROV-1 > 100 µM | KM12 > 100 µM | LOX IMVI > 100 µM | OVCAR-8 > 100 µM | SF-268 > 100 µM | SK-MEL-28 > 100 µM | SK-MEL-2 > 100 µM | SNB-19 > 100 µM | SNB-75 38.7 µM | TK-10 > 100 µM
